Data: US20260250318A1, “COMPOSITIONS AND METHODS FOR CROSSING THE BLOOD BRAIN BARRIER” (VOYAGER THERAPEUTICS, INC., priority 2022, published 2026)
Non-standard residues stand in square brackets, D forms with d. Residues, ends and D or L forms follow the SMILES beside them. *: point of attachment. Biotin = O=C1N[C@H]2[C@H](CS[C@H]2CCCCC(=O)*)N1; pS = N[C@@H](COP(=O)(O)O)C(=O)O

What was measured:
[1] = biological target: T1, ALPL (Homo sapiens, UniProt P05186); assay: SPR (Biacore 8K) binding of peptide ligands to ALPL; conditions: for binding to ALPL by SPR, his-tagged ALPL captured on chip: peptides 0 to 50 μM; for binding to ALPL by SPR, His-tagged ALPL captured on chip: 50 μM peptides or 250 nM capsids flowed over
T1 sequence (P05186 18-501): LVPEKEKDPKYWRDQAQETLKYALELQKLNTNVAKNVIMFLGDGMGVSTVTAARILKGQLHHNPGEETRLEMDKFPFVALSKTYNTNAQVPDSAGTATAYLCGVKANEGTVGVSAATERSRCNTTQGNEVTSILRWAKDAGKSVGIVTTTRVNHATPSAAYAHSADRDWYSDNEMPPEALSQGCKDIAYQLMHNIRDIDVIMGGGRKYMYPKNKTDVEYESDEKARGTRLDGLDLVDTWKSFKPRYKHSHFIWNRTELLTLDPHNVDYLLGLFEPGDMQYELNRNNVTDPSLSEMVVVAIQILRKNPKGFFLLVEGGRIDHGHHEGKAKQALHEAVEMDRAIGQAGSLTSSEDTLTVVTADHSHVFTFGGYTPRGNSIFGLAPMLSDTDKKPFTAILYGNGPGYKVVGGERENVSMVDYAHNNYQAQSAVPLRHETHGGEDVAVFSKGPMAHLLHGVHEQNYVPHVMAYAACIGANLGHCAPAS
Description: Binding and interaction between the peptides and the ALPL receptor were measured by Surface Plasmon Resonance (SPR) on a Biacore 8K instrument. The biotinylated peptides in Table 37 were captured on the streptavidin biosensor chip and 1000 nM of ALPL and buffer were passed over the peptides to monitor binding. […] His-tagged ALPL was then captured on the chip pre-immobilized with anti-His antibody, and 50 μM of the peptides in Table 37 or 250 nM of the AAV9 control capsid, the TTM-001 capsid variant (SEQ ID NO: 981), or the TTM-002 capsid variant (SEQ ID NO: 982) were flowed over the ALPL to check for binding. […] The longer peptides derived from TTM-002,
were also flowed over the his-tagged ALPL captured on the CM5 sensor chip pre-immobilized with anti-His antibody.
Binding and interaction between the phosho-peptides and the ALPL receptor were also measured by SPR. The biotinylated and phosphorylated peptides in Table 38 were captured on the streptavidin biosensor chip along with their non-phosphorylated counterparts, […] (SEQ ID NO: 4500) and […] (SEQ ID NO: 4503). ALPL and buffer were passed over the peptides to monitor binding. The concentration of ALPL used ranged from 0 to 500 nM (0 nM, 125 nM, 250 nM, and 500 nM).
In a second experiment, his-tagged ALPL was first captured on a CM5 sensor chip pre-immobilized with anti-His antibody. The phosphorylated peptides in Table 38 and their non-phosphorylated counterparts, […] (SEQ ID NO: 4500) and […] (SEQ ID NO: 4503) and buffer were flowed over the ALPL protein to monitor binding.

[2] = biological target: T1, ALPL; assay: biochemical; assay type: binding; conditions: for binding to ALPL by ELISA: ALPL coated on wells
Excerpt: Binding of the phospho-peptides of SEQ ID NO: 4512 and 4513 along with their non-phosphorylated counterparts, […] (SEQ ID NO: 4500) and […]

[3] = biological target: T2, His-tagged ALPL (Homo sapiens, UniProt P05186); assay: Bio Layer Interferometry (BLI)/Octet binding of peptides to ALPL; conditions: for binding to ALPL by BLI/Octet: ALPL 1.56 to 100 nM
T2 sequence (P05186 18-501): T1 sequence (P05186 18-501)
Excerpt: Binding of the phospho-peptides of SEQ ID NO: 4512 and SEQ ID NO: 4513 to ALPL was also investigated using Bio Layer Interferometry (BLI)/Octet.

[4] = biological target: human ALPL (soluble protein used in the ELISA and SPR of Example 14) (human) (UniProt P05186); assay: SPR (Biacore), antibody captured on the chip, 1.6 to 1000 nM of human ALPL flowed over

| Compound | binding to ALPL by SPR, his-tagged ALPL captured on chip [1] | EC50 [2] [nM] | binding to ALPL by ELISA [2] | Kd [3] [nM] | koff [3] [s⁻¹] | kon [3] [M⁻¹ s⁻¹] | binding to ALPL by BLI/Octet [3] | binding to ALPL by SPR, His-tagged ALPL captured on chip [1] | other results |
| --- | --- | --- | --- | --- | --- | --- | --- | --- | --- |
| NCCCC[C@H](NC(=O)[C@H](Cc1c[nH]cn1)NC(=O)[C@@H]1CCCN1C(=O)[C@H](COP(=O)(O)O)NC(=O)[C@H](CC(=O)O)NC(=O)[C@H](Cc1c[nH]cn1)NC(=O)CNC(=O)[C@H](CC(N)=O)NC(=O)[C@H](CO)NC(=O)CNC(=O)[C@H](CO)NC(=O)CNC(=O)CCCC[C@@H]1SC[C@@H]2NC(=O)N[C@@H]21)C(=O)N[C@@H](CO)C(=O)NCC(N)=O [SEQ ID NO: 4512] (Biotin-GSGSNGHD[pS]PHKSG-NH2) | low signal with dose dependency | 763 | dose-dependent binding to ALPL | 112 | 0.0026 | 23000 | demonstrated binding to ALPL |  |  |
| CC[C@H](C)[C@H](NC(=O)[C@@H](NC(=O)[C@H](CCCCN)NC(=O)[C@H](CO)NC(=O)CNC(=O)[C@H](CO)NC(=O)CNC(=O)CCCC[C@@H]1SC[C@@H]2NC(=O)N[C@@H]21)[C@@H](C)O)C(=O)N[C@@H](CC(N)=O)C(=O)NCC(=O)N[C@@H](Cc1c[nH]cn1)C(=O)N[C@@H](CC(=O)O)C(=O)N[C@@H](COP(=O)(O)O)C(=O)N1CCC[C@H]1C(=O)N[C@@H](Cc1c[nH]cn1)C(=O)N[C@@H](CCCCN)C(=O)N[C@@H](CO)C(=O)NCC(=O)N[C@@H](CCC(N)=O)C(=O)N[C@@H](CC(N)=O)C(=O)N[C@@H](CCC(N)=O)C(N)=O [SEQ ID NO: 4513] (Biotin-GSGSKTINGHD[pS]PHKSGQNQ-NH2) | low signal with dose dependency | 4290 | dose-dependent binding to ALPL | 20.7 | 0.00067 | 32000 | demonstrated binding to ALPL |  | binding to ALPL at a pH of 5.5 ([3]; pH 5.5): no binding was observed |
| GSGSLYYLSKTINGHDSPHKSGQNQQTLKF [longer peptide derived from TTM-002] |  |  |  |  |  |  |  | no binding to ALPL was observed |  |
| GSGSRLMNPLIDQYLYYLSKTINGHDSPHKSGQNQQTLKFSVAGPSNMAV [longer peptide derived from TTM-002] |  |  |  |  |  |  |  | no binding to ALPL was observed |  |
| Human Alkaline Phosphatase/ALPL Antibody, clone B4-78 (MAB1448-SP) |  |  |  |  |  |  |  |  | Kd [4]: 215 nM; koff [4]: 0.0015 s⁻¹; kon [4]: 6800 M⁻¹ s⁻¹ |
